Reference: PMC13576449, “Small-Molecule Activators of PRMT1: Discovery, SAR Analyses, and Proapoptotic Effects in Pancreatic Cancer Cells” (Journal of Medicinal Chemistry, 2026)

Assays:
PANC-1 cells = experiment: Annexin V/PI flow cytometry apoptosis assay, PANC-1; assay type: cell-based, human; conditions: TR-07 10 μM; for gemcitabine-induced apoptosis, AV/PI flow cytometry, co-treatment: TR-033 5 µM, TR-036 10 µM, ICTR-059 5 µM, after 24 h gemcitabine 1 μM, 48 h, vs gemcitabine alone
Protocol: 6 Effect of small-molecule modulators on gemcitabine-induced apoptosis and tumor growth of PDAC cells. […] After 2 h, gemcitabine (GEM) was added at increasing concentrations (10 and 25 nM) or not (−) for another incubation of 72 h. Subsequently, the luminescence-based caspase3/7 assay was performed. The activity of caspase 3/7 in treated cells was normalized to the activity measured in untreated cells (dark gray bar), which was set to 1 (mean SD, n = 6 for PANC-1 and n = 4 for PaTu8988T; *: p ≤ 0.05, **: p ≤ 0.01, ***: p ≤ 0.001, using the student t-test). […] After 24 h, gemcitabine (GEM, 1 μM) was added (+) or not (−) for another incubation of 48 h. Subsequently, the apoptotic cell fraction was quantified in % by flow cytometry using FITC-labeled Annexin V (AV) and propidium iodide (PI) staining (in B: mean ± SD, n = 6 for PANC-1 and n = 5 for PaTu8988T; **: p ≤ 0.01, ***: p ≤ 0.001, ****: p ≤ 0.0001, using the student t-test). […] Viable cells are AV/PI double-negative (AV–/PI–, lower left quadrant, Q4), early apoptotic cells are AV single-positive (AV+/PI– upper left quadrant, Q1), late apoptotic cells are AV/PI double-positive (AV+/PI+, upper right quadrant, Q2), and necrotic cells are PI single-positive (AV–/PI+, lower right quadrant, Q3). The sum of early and late apoptotic cell numbers ([…] in %) is indicated in red. D-G: The workflow of the PDAC xenograft experiments in mice is depicted in D. PANC-1 cells (2 × 10^6 cells/mouse) were subcutaneously (s.c.) injected in the right flank of female athymic nude mice. Small tumor nodules appeared 6 days post-engraftment. […] Tumor volumes were measured every second day using a digital caliper. […] At the end of the 2 weeks, mice were sacrificed and tumors were dissected (F).
For quantification of apoptosis by Fluorescence Activated Cell Sorting (FACS), PANC-1 and PaTu8988T cells were seeded in 6-well plates (250 × 10^3 cells/well) and cultured in the absence or presence of compounds. After 24 h, gemcitabine was added or not for another 48 h. After harvesting and washing, unfixed cells (0.5–1 × 10^6) were incubated with FITC-labeled Annexin V and/or PI (BD Pharmingen) according to the manufacturer’s instructions. All samples were analyzed using a BD FACSCalibur flow cytometer (BD Bioscience). Data were acquired using the CellQuestPro program and analyzed with the FlowJo (FlowJo LLC) software. […]
induced apoptosis in PDAC cell lines.
(§1) After 24 hours, gemcitabine (GEM, 1 µM) was added (+) or not
(§2) (-) for another incubation of 48 hours. Subsequently, the apoptotic cell fraction was assessed by flow cytometry using FITC-labeled Annexin V (AV) and propidium iodide (PI) staining and quantified in % (mean ± SD, n=3-4; ns: not significant, *: p ≤0.05, **: p ≤0.01, ***: p ≤0.001, ****: p ≤0.0001, using the student t-test).

PaTu8988T cells = experiment: Annexin V/PI flow cytometry apoptosis assay, PaTu8988T; assay type: cell-based, human; conditions: for gemcitabine-induced apoptosis, AV/PI flow cytometry, co-treatment: TR-033 5 µM, TR-036 10 µM, ICTR-059 5 µM, after 24 h gemcitabine 1 μM, vs gemcitabine alone
Protocol: 6 Effect of small-molecule modulators on gemcitabine-induced apoptosis and tumor growth of PDAC cells. […] Subsequently, the luminescence-based caspase3/7 assay was performed. The activity of caspase 3/7 in treated cells was normalized to the activity measured in untreated cells (dark gray bar), which was set to 1 (mean SD, n = 6 for PANC-1 and n = 4 for PaTu8988T; *: p ≤ 0.05, **: p ≤ 0.01, ***: p ≤ 0.001, using the student t-test). […] After 24 h, gemcitabine (GEM, 1 μM) was added (+) or not (−) for another incubation of 48 h. Subsequently, the apoptotic cell fraction was quantified in % by flow cytometry using FITC-labeled Annexin V (AV) and propidium iodide (PI) staining (in B: mean ± SD, n = 6 for PANC-1 and n = 5 for PaTu8988T; **: p ≤ 0.01, ***: p ≤ 0.001, ****: p ≤ 0.0001, using the student t-test). […] Viable cells are AV/PI double-negative (AV–/PI–, lower left quadrant, Q4), early apoptotic cells are AV single-positive (AV+/PI– upper left quadrant, Q1), late apoptotic cells are AV/PI double-positive (AV+/PI+, upper right quadrant, Q2), and necrotic cells are PI single-positive (AV–/PI+, lower right quadrant, Q3). The sum of early and late apoptotic cell numbers (Q2+Q3 in %) is indicated in red. D-G: The workflow of the PDAC xenograft experiments in mice is depicted in D. PANC-1 cells (2 × 10^6 cells/mouse) were subcutaneously (s.c.) injected in the right flank of female athymic nude mice. […] Tumor volumes were measured every second day using a digital caliper. […] At the end of the 2 weeks, mice were sacrificed and tumors were dissected (F).
For quantification of apoptosis by Fluorescence Activated Cell Sorting (FACS), PANC-1 and PaTu8988T cells were seeded in 6-well plates (250 × 10^3 cells/well) and cultured in the absence or presence of compounds. After 24 h, gemcitabine was added or not for another 48 h. After harvesting and washing, unfixed cells (0.5–1 × 10^6) were incubated with FITC-labeled Annexin V and/or PI (BD Pharmingen) according to the manufacturer’s instructions. All samples were analyzed using a BD FACSCalibur flow cytometer (BD Bioscience). Data were acquired using the CellQuestPro program and analyzed with the FlowJo (FlowJo LLC) software.
as §1, §2

Molecule | gemcitabine-induced apoptosis, AV/PI flow cytometry, co-treatment (PANC-1 cells) | gemcitabine-induced apoptosis, AV/PI flow cytometry, co-treatment (PaTu8988T cells; PaTu8988T, TR-07 10 μM, 48 h) | apoptosis, AV/PI flow cytometry, single agent (PANC-1 cells) | viability at 10 µM (PaTu8988T cells; Homo sapiens, PaTu 8988t, 48 h, read-out: Q4, viable cells (AV–/PI–)) | apoptosis, AV/PI flow cytometry, single agent (PaTu8988T cells; PaTu8988T, TR-07 10 μM)
CCN(CC)Cc1cccc(N/C=C2\C(=O)NC(=O)c3ccccc32)c1.Cl [TR-036, (Z )-N-(3-{[(1,3-Dioxo-2,3-dihydroisoquinoline-4(1 H )-ylidene)methyl]amino}benzyl)-N -ethylethanaminium chloride] | rather diminished the gemcitabine-triggered cell death | rather diminished the gemcitabine-triggered cell death | – | – | –
CN(C)Cc1cccc(-c2ccc3[nH]c(=O)c4ccccc4c3c2)c1 [TR-033, 2-{3-[(Dimethylamino)methyl]phenyl}phenanthridin-6(5H)-One] | rather diminished the gemcitabine-triggered cell death | rather diminished the gemcitabine-triggered cell death | – | – | –
CN(C)Cc1cccc(CN/C=C2\C(=O)NC(=O)c3ccccc32)c1.Cl [TR-07, (Z)-1-[3-({[(1,3-Dioxo-2,3-dihydroisoquinolin-4(1H)-lidene)methyl]amino}methyl)phenyl]-N,N-dimethylmethanaminium chloride] | significant increase in the early and late apoptotic stages | significant increase in the early and late apoptotic stages | did not significantly induce apoptosis | 95.8% | did not significantly induce apoptosis
(Z)-2-(2-{[(1,3-Dioxo-2,3-dihydroisoquinolin-4(1H)-ylidene)methyl]amino}phenyl)-N,N-dimethylethan-1-aminium chloride [ICTR-059] | had no effect | weakly enhanced the gemcitabine-induced apoptosis | – | – | –
